≈ marks a conversion by molar mass, not a printed value.

The nature of data set [1]: Cytotoxicity against human RD cells assessed as reduction in cell viability after 3 days by MTT assay. It is filed as cell-based.
Data set [2] can be described thus: Cytotoxicity against human Hep2 cells assessed as reduction in cell viability after 3 days by MTT assay. As to conditions: HEp-2 cells; call rule not given here. The data set is classed as cell-based. Background: Tetrazolium dyes change colour on reduction, which living cells bring about.
In a further data set the test system is Enterovirus A71. The data set is described as follows: Antiviral activity against EV71 Xiangyang-Hubei-09 infected in human RD cells assessed as inhibition of virus-induced cytopathic effect by MTT dye based assay. The data set is classed as functional, organism-based.
Another data set deals with Coxsackievirus B3. Kind of data set: Antiviral activity against Coxsackievirus B3 (strain Nancy) infected in human HEP2 cells assessed as inhibition of virus-induced cytopathic effect by MTT dye based assay. The data set is classed as functional, organism-based. A general note: Cytopathic effects are the visible damage that an infection or toxin causes in cultured cells.

Data set [3] in a line: Selectivity index, ratio of CC50 for human HEP2 cells to EC50 for Coxsackievirus B3 (strain Nancy) infected in human HEP cells. It is filed as toxicity, cell-based. As to conditions: HEp-2 cells, read-out: Ratio CC50/EC50.
Data set [4] in a line: Selectivity index, ratio of CC50 for human RD cells to EC50 for EV71 Xiangyang-Hubei-09 infected in human RD cells. The data set is classed as toxicity, cell-based. As to conditions: read-out: Ratio CC50/EC50.
Setting [5] is: Enterovirus B, Nancy, HEp-2, read-out: EC50.
Where [6] appears, read: Enterovirus A, Xiangyang-Hubei-09, RD, read-out: EC50.

With `CCC[C@H](CCn1cncn1)c1ccc(C)cc1`, the 50% cytotoxic concentration (CC50) at 72 h in data set [1] amounted to 47.2 µg/mL (≈ 194 µM); in data set [2], 45.7 µg/mL (≈ 188 µM).
Consider `CC[C@H](CCn1cncn1)c1ccc(Cl)cc1`, for which the CC50 at 72 h was determined as 57 µg/mL (≈ 228 µM) in data set [1] and 50.6 µg/mL (≈ 203 µM) in data set [2]. Also, the results for the EC50 result in the data set on Enterovirus A71 (rd) and in the data set with Coxsackievirus B3 (setting [5]) were “Not Active” and 13.5 µg/mL (≈ 54.1 µM), respectively. The selectivity ratio in data set [3] amounted to 3.7.
As for `CC[C@@H](CCn1cncn1)c1ccccc1`, the CC50 at 72 h was determined as 91.2 µg/mL (≈ 424 µM) in data set [1] and 89.9 µg/mL (≈ 418 µM) in data set [2].
Regarding `CCCC[C@@H](CCn1cncn1)c1ccc(C)cc1`, the CC50 at 72 h amounted to 56.5 µg/mL (≈ 220 µM) in data set [1] and 60.7 µg/mL (≈ 236 µM) in data set [2]. Further, the EC50 result in the data set on Enterovirus A71 (rd) and in the data set with Coxsackievirus B3 was “Not Active” each time.
Turning to `c1ccc(C(CCn2cncn2)C2CCCCC2)cc1` (single isomer, unassigned; 39), the CC50 at 72 h was determined as 11.8 µg/mL (≈ 43.8 µM) in data set [1] and 24.8 µg/mL (≈ 92.1 µM) in data set [2]. In addition, the EC50 entry in the data set on Enterovirus A71 (rd) is “Not Active”; in the data set with Coxsackievirus B3 (setting [5]), 5.1 µg/mL (≈ 18.9 µM). For the same molecule, the selectivity ratio in data set [3] came to 4.9.
Take `c1ccc(C[C@@H](CCn2cncn2)c2ccccc2)cc1`: the figures for the CC50 at 72 h in data set [1] and in data set [2] were 56 µg/mL (≈ 202 µM) and 55.9 µg/mL (≈ 202 µM), respectively.
For the molecule `COc1ccc([C@H](CCn2cncn2)Cc2ccccc2)cc1`, the CC50 at 72 h in data set [1] turned out to be 66 µg/mL (≈ 215 µM); in data set [2], 60.3 µg/mL (≈ 196 µM). Besides, the EC50 with Enterovirus A71 (setting [6]) and with Coxsackievirus B3 (setting [5]) was 12.2 µg/mL (≈ 39.7 µM) throughout. In addition, the selectivity ratio in data set [4] turned out to be 5.4; in data set [3], 4.9.
Take `CC[C@H](CCn1cncn1)c1ccccc1`: the CC50 at 72 h in data set [1] came to 99.8 µg/mL (≈ 464 µM); in data set [2], 97.7 µg/mL (≈ 454 µM).
With `CCCC[C@@H](CCn1cncn1)c1ccccc1`, the CC50 at 72 h in data set [1] was 47.5 µg/mL (≈ 195 µM); in data set [2], 40.8 µg/mL (≈ 168 µM). Further, the EC50 entry in the data set with Enterovirus A71 (rd) and in the data set on Coxsackievirus B3 was “Not Active” in each case.
With `Clc1ccc([C@H](CCn2cncn2)Cc2ccccc2)cc1`, the CC50 at 72 h is 21.7 µg/mL (≈ 69.6 µM) in data set [1] and 25.7 µg/mL (≈ 82.4 µM) in data set [2].
Regarding `CC[C@@H](CCn1cncn1)c1ccc(Cl)cc1`, the CC50 at 72 h is 55.3 µg/mL (≈ 221 µM) in data set [1] and 55.1 µg/mL (≈ 221 µM) in data set [2]. Also, the EC50 worked out at 5.4 µg/mL (≈ 21.6 µM) with Enterovirus A71 (setting [6]) and 10.5 µg/mL (≈ 42 µM) in the data set with Coxsackievirus B3 (setting [5]). The selectivity ratio amounted to 10.2 in data set [4] and 5.2 in data set [3].
Consider `CC[C@H](CCn1cncn1)c1ccc(OC)cc1`, for which the CC50 at 72 h in data set [1] is 118 µg/mL (≈ 483 µM); in data set [2], 153 µg/mL (≈ 625 µM). Further, the EC50 stood at 15.9 µg/mL (≈ 64.8 µM) in the data set with Enterovirus A71 (setting [6]) and 15.1 µg/mL (≈ 61.6 µM) in the data set with Coxsackievirus B3 (setting [5]). Moreover, the selectivity ratio in data set [4] amounted to 7.4; in data set [3] it was 10.2.
In the case of `CCCC[C@@H](CCn1cncn1)c1ccc(F)cc1`, the CC50 at 72 h came out at 34.1 µg/mL (≈ 130 µM) in data set [1] and 36 µg/mL (≈ 138 µM) in data set [2].
In the same order, the values of `CCCC[C@H](CCn1cncn1)c1ccc(Cl)cc1Cl` are 10.1 µg/mL (≈ 32.3 µM) and 13.4 µg/mL (≈ 42.9 µM).
With `c1ccc(C[C@H](CCn2cncn2)c2ccccc2)cc1`, the CC50 at 72 h in data set [1] amounted to 55.4 µg/mL (≈ 200 µM); in data set [2] it was 60.9 µg/mL (≈ 220 µM). The EC50 turned out to be 12.7 µg/mL (≈ 45.8 µM) in the data set on Enterovirus A71 (setting [6]) and 14.9 µg/mL (≈ 53.7 µM) in the data set with Coxsackievirus B3 (setting [5]). The selectivity ratio in data set [4] came to 4.4; in data set [3], 4.1.
For the molecule `CCCC[C@@H](CCn1cncn1)c1ccc(Cl)cc1Cl`, the CC50 at 72 h in data set [1] was found to be 1.9 µg/mL (≈ 6.08 µM); in data set [2] it was 6.5 µg/mL (≈ 20.8 µM).
In the case of `CC[C@@H](CCn1cncn1)c1ccc(F)cc1`, the figures for the CC50 at 72 h in data set [1] and in data set [2] were 91.6 µg/mL (≈ 393 µM) and 90.3 µg/mL (≈ 387 µM), respectively. Besides, the EC50 result in the data set on Enterovirus A71 (rd) and with Coxsackievirus B3 was “Not Active” in each case.
In the case of `CCC[C@H](CCn1cncn1)c1ccc(OC)cc1`, the CC50 at 72 h in data set [1] was found to be 59.3 µg/mL (≈ 229 µM); in data set [2], 59.6 µg/mL (≈ 230 µM).
On the same counts, the results for `CCC[C@H](CCn1cncn1)c1ccc(F)cc1` are 38.4 µg/mL (≈ 155 µM) and 39.3 µg/mL (≈ 159 µM).
`Clc1ccc([C@@H](CCn2cncn2)Cc2ccccc2)cc1`: the CC50 at 72 h in data set [1] amounted to 24.4 µg/mL (≈ 78.3 µM); in data set [2], 25.9 µg/mL (≈ 83.1 µM).
In the case of `Cc1ccc(C(CCn2cncn2)C2CCCCC2)cc1` (single isomer, unassigned), the results for the CC50 at 72 h in data set [1] and in data set [2] were 57.9 µg/mL (≈ 204 µM) and 57.3 µg/mL (≈ 202 µM), respectively. Also, the results for the EC50 in the data set on Enterovirus A71 (setting [6]) and with Coxsackievirus B3 (setting [5]) were 10.6 µg/mL (≈ 37.4 µM) and 11.7 µg/mL (≈ 41.3 µM), respectively. Moreover, the selectivity ratio in data set [4] was found to be 5.5; in data set [3], 4.9.
On to `Clc1ccc([C@H](CCn2cncn2)Cc2ccccc2)c(Cl)c1`, for which the cytotoxic concentration (CC50) at 72 h in data set [1] was 1.9 µg/mL (≈ 5.49 µM); in data set [2], 4.9 µg/mL (≈ 14.2 µM).
On to `c1ccc(C(CCn2cncn2)C2CCCCC2)cc1` (single isomer, unassigned; 40), for which the CC50 at 72 h is 9.2 µg/mL (≈ 34.2 µM) in data set [1] and 21.8 µg/mL (≈ 80.9 µM) in data set [2]. In addition, the EC50 result in the data set with Enterovirus A71 (rd) was “Not Active”; in the data set on Coxsackievirus B3 (setting [5]), 4.7 µg/mL (≈ 17.4 µM). For the same molecule, the selectivity ratio in data set [3] was found to be 4.6.
For `Cc1ccc([C@H](CCn2cncn2)Cc2ccccc2)cc1`, the CC50 at 72 h in data set [1] is 117 µg/mL (≈ 402 µM); in data set [2], 152 µg/mL (≈ 522 µM). The 50% effective concentration (EC50) with Enterovirus A71 (setting [6]) was 9.2 µg/mL (≈ 31.6 µM); in the data set with Coxsackievirus B3 (setting [5]) it was 13.6 µg/mL (≈ 46.7 µM). In addition, the selectivity ratio in data set [4] is 12.7; in data set [3], 11.2.
Take `CCCC[C@H](CCn1cncn1)c1ccc(C)cc1`: the CC50 at 72 h was determined as 26.5 µg/mL (≈ 103 µM) in data set [1] and 23.7 µg/mL (≈ 92.1 µM) in data set [2].
In the same order, the values of `CCCC[C@H](CCn1cncn1)c1ccc(OC)cc1` are 28.3 µg/mL (≈ 104 µM) and 34.5 µg/mL (≈ 126 µM).
Consider `CC[C@H](CCn1cncn1)c1ccc(F)cc1`, for which the results for the CC50 at 72 h in data set [1] and in data set [2] were 110 µg/mL (≈ 473 µM) and 103 µg/mL (≈ 442 µM), respectively. In addition, the EC50 entry in the data set with Enterovirus A71 (rd) and in the data set with Coxsackievirus B3 was “Not Active” throughout.
As for `CCC[C@@H](CCn1cncn1)c1ccc(Cl)cc1`, the figures for the CC50 at 72 h in data set [1] and in data set [2] were 40.8 µg/mL (≈ 155 µM) and 36.6 µg/mL (≈ 139 µM), respectively.
`CCC[C@@H](CCn1cncn1)c1ccc(C)cc1`: the CC50 at 72 h was determined as 74.1 µg/mL (≈ 304 µM) in data set [1] and 71.3 µg/mL (≈ 293 µM) in data set [2]. For the same molecule, the EC50 came to 10.9 µg/mL (≈ 44.8 µM) with Enterovirus A71 (setting [6]) and 10.3 µg/mL (≈ 42.3 µM) with Coxsackievirus B3 (setting [5]). For the same molecule, the selectivity ratio worked out at 6.8 in data set [4] and 6.9 in data set [3].
`CCCC[C@H](CCn1cncn1)c1ccc(Cl)cc1`: the CC50 at 72 h in data set [1] stood at 20.3 µg/mL (≈ 73.1 µM); in data set [2] it was 20.2 µg/mL (≈ 72.7 µM).
On the same counts, the results for `Cc1ccc([C@@H](CCn2cncn2)Cc2ccccc2)cc1` are 109 µg/mL (≈ 373 µM) and 83.3 µg/mL (≈ 286 µM).
In the same order, the values of `CCC[C@H](CCn1cncn1)c1ccccc1` are 63.1 µg/mL (≈ 275 µM) and 58.4 µg/mL (≈ 255 µM).
On to `Cc1ccc(C[C@H](CCn2cncn2)c2ccccc2)cc1`, for which the CC50 at 72 h amounted to 37.8 µg/mL (≈ 130 µM) in data set [1] and 38.8 µg/mL (≈ 133 µM) in data set [2]. The EC50 result with Enterovirus A71 (rd) was “Not Active”; in the data set with Coxsackievirus B3 (setting [5]), 7.4 µg/mL (≈ 25.4 µM). Besides, the selectivity ratio in data set [3] worked out at 5.2.
For `Clc1ccc([C@@H](CCn2cncn2)Cc2ccccc2)c(Cl)c1`, the CC50 at 72 h in data set [1] is 6.5 µg/mL (≈ 18.8 µM); in data set [2] it was 11.1 µg/mL (≈ 32.1 µM).
In the same order, the values of `CCCC[C@H](CCn1cncn1)c1ccc(F)cc1` are 35.2 µg/mL (≈ 135 µM) and 38.5 µg/mL (≈ 147 µM).
In the same order, the values of `CCCC[C@@H](CCn1cncn1)c1ccc(OC)cc1` are 39.4 µg/mL (≈ 144 µM) and 31.6 µg/mL (≈ 116 µM).
In the same order, the values of `CCCC[C@@H](CCn1cncn1)c1ccc(Cl)cc1` are 18.7 µg/mL (≈ 67.3 µM) and 17 µg/mL (≈ 61.2 µM).
Take `CCC[C@@H](CCn1cncn1)c1ccc(F)cc1`: the half-maximal cytotoxic concentration (CC50) at 72 h turned out to be 56.9 µg/mL (≈ 230 µM) in data set [1] and 55.3 µg/mL (≈ 224 µM) in data set [2].

In general, CC50 refers to the concentration that lowers cell viability or growth by half. A word on the EC50: it is the concentration giving half of the maximal effect.

These data come from ChEMBL document CHEMBL4130414, “Asymmetric synthesis of novel triazole derivatives and their in vitro antiviral activity and mechanism of action” (Eur J Med Chem, 2017).
